According to US20170314056A1, “METHOD OF USING NEAR INFRARED FLUORESCENT DYES FOR IMAGING AND TARGETING CANCERS” (priority 2010, published 2017):
Entries after “also recorded” stand apart in the source; their conditions may differ.

Key:
[1] = test system: mouse pancreatic cancer cell lines (PDAC2.3, PDAC3.3, BTC3 and BTC4); test: Uptake of NIR dyes by mouse pancreatic cancer cell lines; type: cell-based; settings: PDAC2.3, PDAC3.3, BTC3, BTC4; 20 μM dye
ARCaPM cells [2] = test: Live-cell kinetics of dye uptake in prostate cancer cells; type: cell-based, human; settings: for uptake of dye in ARCaPM cells compared with normal P69 cells: 20 μM dye, live-cell spinning disc confocal
Method: ARCaPM Cells were plated on live-cell imaging chambers from World Precision Instrument (Sarasota, Fla.) overnight. Cells were treated with IR-780 with different concentrations and were imaged using a Perkin-Elmer Ultraview ERS spinning discconfocal microscope. This system was mounted on a Zeiss Axiovert 200m inverted microscope equipped with a 37° C. stage warmer, incubator, and CO2 perfusion. A x63 or x100 Zeiss oil objective (numerical aperture, 1.4) was used for all images and a Z-stack was created using the attached piezo electric z-stepper motor. The 633 nm laser line of an argon ion laser (set at 60% power) was used to excite the IR-780 organic dye. For each comparison, the exposure time and laser intensity was kept identical for accurate intensity measurement. Pixel intensity was quantitated using Metamorph 6.1 (Universal Imaging, Downingtown, Pa.) and the mean pixel intensity was generated as grey level using the Region Statistics feature on the software.
(§1) Cells were plated on live-cell imaging chambers (World Precision Instrument, Sarasota, Fla.) overnight. Cells were exposed to cyanine dyes at different concentrations and dye uptake was evaluated by a Perkin-Elmer Ultraview ERS spinning disc confocal microscope. This system was mounted on a Zeiss Axiovert 200m inverted microscope equipped with a 37° C. stage warmer, incubator, and constant CO2 perfusion. A 63× or 100× Zeiss oil objective (numerical aperture, 1.4) was used for live cell images and a Z-stack was created using the attached piezoelectric z-stepper motor. The 633 nm laser line of an argon ion laser (set at 60% power) was used to excite the cyanine dyes. […] For comparative studies, the exposure time and laser intensity were kept identical for accurate intensity measurements. Pixel intensity was quantified using Metamorph 6.1 (Universal Imaging, Downingtown, Pa.) and the mean pixel intensity was generated as grey level using the Region Statistics feature on the software (23). To determine the dye uptake by the mitochondria, the mitochondrial tracking dye Mito Tracker Orange CMTMROS (Molecular Probes, Carlsbad, Calif.) was used. To determine the dye localization in lysosomes, a lysosome tracking dye, Lyso Tracker Green DND-26 (Molecular Probes, Carlsbad, Calif.), was selected. Imaging of mitochondrial and/or lysosome localization of the cyanine dye was conducted under confocal microscopy (24).
To determine if the cyanine dye uptake and accumulation in cancer cells was dependent upon OATPs, cells were preincubated with 250 μM bromosulfophthalein (BSP), a competitive inhibitor of organic anion transporting peptides (OATPs) (25), for 5 minutes prior to incubating the cells with cyanine dyes. The uptake and accumulation of cyanine dyes in the presence and absence of BSP were conducted in the stage warmer incubator for a period of 35 minutes. The levels of cyanine dye taken up and accumulated in normal prostate (P69) and prostate cancer (ARCaPM) cells were determined and compared on a real-time basis.

ARCaPM cells [3] = test: Subcellular co-localization with mitochondria and lysosome tracking dyes; type: cell-based, human; settings: Mito Tracker and Lyso Tracker co-staining
Method: as §1, with “Imaging of mitochondrial and/or lysosome localization of the cyanine dye was conducted under confocal microscopy (24).” left out

Apc^Min/+ mouse adenoma = test: Detection of intestinal neoplasia in Apc^Min/+ mice; type: in vivo; settings: IR-783 i.p. 10 nmol/20 g
Method: The uptake of cyanine dyes by the TRAMP mouse prostate model and the Apc^Min/+ mouse-adenoma model (obtained from The Jackson Laboratory, Bar Harbor, Me.) was assessed by a similar protocol as described above. We also utilized the Olympus OV100 imaging system to detect adenoma in the Apc^Min/+ mouse model. In brief, mice were injected intraperitoneally with IR-783 dye at a dose of 10 nmol/20 g body weight and animals were subjected to total body cyanine dye imaging as described above. Animals were sacrificed at 48 hrs after dye administration and tumors were dissected and subjected to NIR imaging. The presence of tumor cells in tissue specimens was confirmed by histopathologic analysis.

ARCaPM tumor = test: Dye biodistribution in ARCaPM tumor-bearing mice; type: in vivo, mouse
Description: To assess tissue distribution of these dyes, athymic mice without tumor implantation were sacrificed at 0, 6 and 80 hrs (N=3 each) after i.v. injection of IR-783 dye at a dose of 10 nmol/20 g. Dissected organs were subjected to NIR imaging by a Kodak Imaging Station 4000 MM. In another study the mice bearing orthotopic ARCaPM tumors were subjected to NIR imaging at 0.5, 24, 48, 72 and 96 hrs after IR-783 i.v. administration at a dose of 10 nmol/20 g. In some cases, we also assessed the biodistribution of NIR dye by a spectral method in tissues harvested from athymic mice bearing subcutaneous ARCaPM tumors (N=6). Tumors and normal host organs were homogenized in PBS, centrifuged at 15,000×g for 15 minutes to recover the supernatant fraction after the mice were injected i.p. with IR-783 at a dose of 10 nmol/20 g. The presence of the organic dyes (parental IR-783 and its metabolites) in tissues was estimated spectrophotometrically at an emission wavelength of 820 nm by a PTI Near Infrared Fluorometer QuantaMaster™ 50 (PTI, Birmingham, N.J.) equipped with a 75-watt xenon arc lamp under 500 to 1700 nm InGaAs detector using known concentrations of IR-783 as the standard (28). In other cases, tumor tissues harvested from mice were stored in formalin from 1 week to 3 months, and fluorescence images were obtained and compared.

[4] = test system: human renal cancer cells (SN12C); test: Detection of renal cancer cells in blood by NIR imaging and flow cytometry; type: cell-based; settings: SN12C cells spiked into whole blood; 20 μM IR-783
Method: Citrated whole mouse blood samples were collected from same inbred athymic nude mice. A known number of human renal cancer cells (SN12C) were added into 3 ml whole mouse blood, and mixed gently with 20 μM IR-783 and incubated for 30 minutes at 37° C. The mononuclear cells and cancer cells were recovered by gradient centrifugation using Histopaque-1077 (Sigma, St. Louis, Mo.) and then diluted with 0.5 ml of 1% paraformaldehyde to inhibit further activation. A sample incubated with PBS served as negative isotype control. The isolated live cells were observed under a Leica TCS SP confocal microscope (Leica Microsystems, Heidelberg, Germany) and samples were excited with 670 nm. All samples were analyzed within 1 hrs of collection in a Becton Dickinson LSRII flow cytometer (Becton Dickinson Biosciences, San Jose, Calif.) with a red laser diode (640 nm) for excitation and cy7 detector for detection and with LYSIS II software.

2-[2-[2-Chloro-3-[2-[1,3-dihydro-3,3-dimethyl-1-(4-sulfobutyl)-2H-indol-2-ylidene]-ethylidene]-1-cyclohexen-1-yl]-ethenyl]-3,3-dimethyl-1-(4-sulfobutyl)-3H-indolium [IR-783]
uptake of dye by mouse pancreatic cancer cell lines [1]: taken up by other malignant cells from both human and mouse; also recorded: significant uptake
uptake of dye in ARCaPM cells compared with normal P69 cells (ARCaPM cells [2]): significant uptake
early phase of uptake and retention completed (ARCaPM cells [2]; ARCaP cells): 12 min
late phase of uptake and retention completed (ARCaPM cells [2]; ARCaP cells): 30 min
subcellular localization of the dye (ARCaPM cells [3]): condense on mitochondrial and lysosomal organelles; also recorded: a large portion of the IR-783 was co-localized with these subcellular organelles
detection of tumor (adenoma) (Apc^Min/+ mouse adenoma): could detect tumor
dye signal in tumor tissue (ARCaPM tumor; 24 hrs after dye, ARCaPM tumor, in vivo and ex vivo imaging): accumulate in tumor tissues; also recorded: strong signals
signal to noise ratios in tumor specimens (ARCaPM tumor; in vivo whole body and ex vivo analysis): exceeding 25
apparent concentration of dye and its metabolites in tumors versus normal tissues (ARCaPM tumor; light emission intensity at 820 nm, P<0.05, 3 determinations): ~10 fold
signals in normal organs (ARCaPM tumor; liver, lung, heart, spleen and kidneys): very low signals
time at which tumors still retained dye (ARCaPM tumor; orthotopic ARCaPM tumor, i.v. 10 nmol/20 g): ≥ 4 days
flow cytometry discrimination of stained cancer cells [4]: totally identified from normal lymphocytes
visualization of cancer cells in blood under NIR imaging [4]: clearly visualized

CCCN1C(=CC=C2CCCC(C=CC3=[N+](CCC)c4ccccc4C3(C)C)=C2Cl)C(C)(C)c2ccccc21.[I-] [IR-780, 2-[2-[2-Chloro-3-[(1,3-dihydro-3,3-dimethyl-1-propyl-2H-indol-2-ylidene)ethylidene]-1-cyclohexen-1-yl]ethenyl]-3,3-dimethyl-1-propylindolium iodide]
uptake of dye in ARCaPM cells compared with normal P69 cells (ARCaPM cells [2]): big difference in IR-780 uptake by cancer cells and normal cells
dye concentration needed to measure uptake into cancer cells in culture (ARCaPM cells [2]; time course and concentration dependence): 20 to 50 µM
subcellular localization of the dye (ARCaPM cells [3]): co-localized with both mitochondria and lysosomes; also recorded: Co-localization of IR-780 and mitochondrial and lysosome were shown
